Results taken from PMC6270165, “Synthesis and Biological Evaluation of 3-Benzisoxazolyl-4-indolylmaleimides as Potent, Selective Inhibitors of Glycogen Synthase Kinase-3β” (Molecules, 2013).

Experiments:
Type in all cases: biochemical
GSK-3β = target: T1, GSK-3β (Homo sapiens, UniProt P49841); assay: GSK-3β kinase assay (Z'-LYTE Kinase Assay kit Ser/Thr 9 Peptide); conditions: for IC50: 50 nM enzyme, 30 μM ATP, 2 μM substrate peptide, triplicate, mean ± SE, read-out: GSK-3β inhibitory activity IC50 (nM) ± SE; for Selectivity for GSK-3β over other tested kinases: versus PKC-epsilon, JAK2, BRAF, IKK2 and Drak2
T1 construct: GST (N, cleaved yes); made in house; host or cells: Escherichia coli BL21-Codon Plus (DE3)
T1 sequence (P49841 whole entry): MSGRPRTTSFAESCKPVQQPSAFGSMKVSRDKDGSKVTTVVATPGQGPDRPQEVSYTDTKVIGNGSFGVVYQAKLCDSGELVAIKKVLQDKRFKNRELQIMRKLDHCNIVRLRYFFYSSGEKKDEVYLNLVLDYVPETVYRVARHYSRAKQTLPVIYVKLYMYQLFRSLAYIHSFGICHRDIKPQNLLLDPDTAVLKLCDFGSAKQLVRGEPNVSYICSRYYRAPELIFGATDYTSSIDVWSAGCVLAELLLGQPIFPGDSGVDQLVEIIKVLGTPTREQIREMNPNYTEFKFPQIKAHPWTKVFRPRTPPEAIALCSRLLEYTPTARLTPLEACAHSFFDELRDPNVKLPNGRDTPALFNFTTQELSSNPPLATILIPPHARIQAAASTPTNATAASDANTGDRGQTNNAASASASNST
Procedure: (§1) GSK3β belongs to CMGC family. Here, the other family members were used to evaluate the selectivity of GSK3β inhibitors, including PKC-epsilon (AGC family), JAK2 (TK family), Braf (TKL family), DRAK2 (CAMK family) and IKKβ (other family).The recombinant GST-GSK-3βprotein was expressed in Escherichia coli strain BL21-Codon Plus (DE3), purified by GSTrap affinity chromatography, and cleaved by thrombin. The GSK-3β kinase assay was carried out with the Z´-LYTETM Kinase Assay kit Ser/Thr 9 Peptide substrate (Invitrogen, Grand, NY, USA) in 10 μL reaction volume containing 50 nM enzyme, 30 μM ATP and 2 μM substrate peptide. Drak2 Proteins were presented by professor Jiang-ping Wu (Laboratory of Immunology, Research Centre, CHUM, Notre Dame Hospital, Pavilion DeSève). The Drak2 kinase reaction was performed in a final assay volume of 3.4 μL using the ADP-GLO Kinase Assay Kit (Promega, Madison, WI, USA), according the ADP-GLO protocol and read on an EnVision plate reader. The recombinant PKC-epsilon, IKKβ, and JAK2 with N-terminal His-tag were expressed using baculovirus expression system and purified with Ni-Beads. BRAF protein was from Carna Biosciences, Inc. (Kobe Port Island, Japan). And the related kinase reactions were performed in a final assay volume of 10 μL using the related HTRF Assay Kit (Cisbio, Codolet, France). Reactions were according the HTRF protocol and read on an EnVision plate reader. All reactions were carried out in triplicate. […] Data were expressed as mean ± SE.

JAK2 = target: T2, JAK2 (Homo sapiens, UniProt O60674); assay: JAK2 kinase assay (HTRF); conditions: read-out: JAK2 inhibition% at 0.8 μg/mL (~2 μM)
T2 construct: His-tag (N); made in house
T2 sequence (O60674 whole entry): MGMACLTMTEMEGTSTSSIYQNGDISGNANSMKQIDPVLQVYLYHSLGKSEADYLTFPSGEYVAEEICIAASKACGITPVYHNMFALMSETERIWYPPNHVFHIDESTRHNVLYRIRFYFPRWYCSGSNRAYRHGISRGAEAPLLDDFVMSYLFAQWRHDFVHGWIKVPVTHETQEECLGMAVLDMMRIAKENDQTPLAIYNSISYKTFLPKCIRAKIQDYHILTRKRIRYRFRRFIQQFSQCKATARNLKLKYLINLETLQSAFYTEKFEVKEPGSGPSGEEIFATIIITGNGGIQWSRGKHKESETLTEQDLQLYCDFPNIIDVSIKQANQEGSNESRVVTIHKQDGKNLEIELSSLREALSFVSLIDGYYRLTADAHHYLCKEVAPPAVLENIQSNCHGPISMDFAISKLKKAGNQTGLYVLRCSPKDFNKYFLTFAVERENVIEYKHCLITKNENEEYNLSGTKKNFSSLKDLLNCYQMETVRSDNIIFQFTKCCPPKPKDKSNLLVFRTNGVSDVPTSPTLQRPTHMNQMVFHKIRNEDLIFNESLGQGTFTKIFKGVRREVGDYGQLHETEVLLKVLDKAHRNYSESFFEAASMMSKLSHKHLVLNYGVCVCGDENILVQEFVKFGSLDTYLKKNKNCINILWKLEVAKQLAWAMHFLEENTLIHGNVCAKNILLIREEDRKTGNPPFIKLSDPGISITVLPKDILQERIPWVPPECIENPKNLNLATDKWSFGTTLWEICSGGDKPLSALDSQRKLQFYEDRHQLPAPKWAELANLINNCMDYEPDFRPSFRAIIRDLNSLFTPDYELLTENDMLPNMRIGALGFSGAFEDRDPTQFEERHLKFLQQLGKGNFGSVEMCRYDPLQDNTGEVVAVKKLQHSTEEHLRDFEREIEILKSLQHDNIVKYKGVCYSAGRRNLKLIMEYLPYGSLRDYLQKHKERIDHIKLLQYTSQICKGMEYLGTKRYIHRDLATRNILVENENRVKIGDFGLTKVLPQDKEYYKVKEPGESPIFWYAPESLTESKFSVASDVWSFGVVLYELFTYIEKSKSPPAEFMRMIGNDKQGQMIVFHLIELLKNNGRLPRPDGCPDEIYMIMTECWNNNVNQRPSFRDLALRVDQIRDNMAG
Procedure: as §1

BRAF = target: T3, BRAF (Homo sapiens, UniProt P15056); assay: BRAF kinase assay (HTRF); conditions: read-out: BRAF inhibition% at 0.8 μg/mL (~2 μM)
T3 construct: purchased Carna Biosciences, Inc
T3 sequence (P15056 whole entry): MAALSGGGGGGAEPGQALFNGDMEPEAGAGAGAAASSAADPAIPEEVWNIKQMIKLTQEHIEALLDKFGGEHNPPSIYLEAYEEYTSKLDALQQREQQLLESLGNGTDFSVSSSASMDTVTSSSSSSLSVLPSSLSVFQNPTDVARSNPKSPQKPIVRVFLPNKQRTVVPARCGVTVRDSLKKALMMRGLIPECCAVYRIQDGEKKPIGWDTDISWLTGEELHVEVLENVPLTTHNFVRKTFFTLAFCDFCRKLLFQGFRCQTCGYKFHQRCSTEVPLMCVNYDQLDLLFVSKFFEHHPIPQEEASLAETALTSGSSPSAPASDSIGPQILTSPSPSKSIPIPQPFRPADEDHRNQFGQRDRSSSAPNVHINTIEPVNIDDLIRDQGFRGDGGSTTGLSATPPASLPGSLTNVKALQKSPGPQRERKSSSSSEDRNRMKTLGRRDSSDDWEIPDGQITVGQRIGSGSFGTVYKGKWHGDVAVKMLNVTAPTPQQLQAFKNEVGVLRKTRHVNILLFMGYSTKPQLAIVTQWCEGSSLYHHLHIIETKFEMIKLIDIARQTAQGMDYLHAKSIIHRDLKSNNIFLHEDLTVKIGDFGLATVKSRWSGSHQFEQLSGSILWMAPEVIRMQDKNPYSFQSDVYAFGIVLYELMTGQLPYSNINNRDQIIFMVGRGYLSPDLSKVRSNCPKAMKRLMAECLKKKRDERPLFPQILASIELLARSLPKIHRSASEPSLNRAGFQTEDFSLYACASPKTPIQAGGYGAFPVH
Procedure: as §1

IKK2 = target: T4, IKK2 (Homo sapiens, UniProt O14920); assay: IKK2 (IKKβ) kinase assay (HTRF); conditions: read-out: IKK2 inhibition% at 0.8 μg/mL (~2 μM)
T4 construct: His-tag (N); made in house
T4 sequence (O14920 1-756): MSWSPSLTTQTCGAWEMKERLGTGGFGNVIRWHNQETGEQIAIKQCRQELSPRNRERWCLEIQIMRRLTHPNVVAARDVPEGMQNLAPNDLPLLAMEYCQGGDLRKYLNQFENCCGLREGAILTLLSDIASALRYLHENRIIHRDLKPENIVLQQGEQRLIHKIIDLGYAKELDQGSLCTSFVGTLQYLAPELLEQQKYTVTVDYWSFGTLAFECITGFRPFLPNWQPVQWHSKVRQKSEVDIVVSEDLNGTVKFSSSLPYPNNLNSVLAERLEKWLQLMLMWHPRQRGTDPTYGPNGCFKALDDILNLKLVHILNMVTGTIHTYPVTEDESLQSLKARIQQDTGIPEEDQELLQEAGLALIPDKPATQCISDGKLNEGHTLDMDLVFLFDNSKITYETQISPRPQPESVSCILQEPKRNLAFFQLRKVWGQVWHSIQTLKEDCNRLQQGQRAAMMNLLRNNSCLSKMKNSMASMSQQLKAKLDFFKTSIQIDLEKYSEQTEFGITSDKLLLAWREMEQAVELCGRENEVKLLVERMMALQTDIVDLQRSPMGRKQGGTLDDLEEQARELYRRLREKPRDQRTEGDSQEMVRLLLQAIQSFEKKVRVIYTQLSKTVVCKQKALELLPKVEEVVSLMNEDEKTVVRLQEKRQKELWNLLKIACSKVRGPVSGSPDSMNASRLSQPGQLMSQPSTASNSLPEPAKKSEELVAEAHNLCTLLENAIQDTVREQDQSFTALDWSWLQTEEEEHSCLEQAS
Procedure: as §1

PKC-epsilon = target: T5, PKC-epsilon (Homo sapiens, UniProt Q02156); assay: PKC-epsilon kinase assay (HTRF); conditions: read-out: PKC-epsilon inhibition% at 0.8 μg/mL (~2 μM)
T5 construct: His-tag (N); made in house
T5 sequence (Q02156 1-737): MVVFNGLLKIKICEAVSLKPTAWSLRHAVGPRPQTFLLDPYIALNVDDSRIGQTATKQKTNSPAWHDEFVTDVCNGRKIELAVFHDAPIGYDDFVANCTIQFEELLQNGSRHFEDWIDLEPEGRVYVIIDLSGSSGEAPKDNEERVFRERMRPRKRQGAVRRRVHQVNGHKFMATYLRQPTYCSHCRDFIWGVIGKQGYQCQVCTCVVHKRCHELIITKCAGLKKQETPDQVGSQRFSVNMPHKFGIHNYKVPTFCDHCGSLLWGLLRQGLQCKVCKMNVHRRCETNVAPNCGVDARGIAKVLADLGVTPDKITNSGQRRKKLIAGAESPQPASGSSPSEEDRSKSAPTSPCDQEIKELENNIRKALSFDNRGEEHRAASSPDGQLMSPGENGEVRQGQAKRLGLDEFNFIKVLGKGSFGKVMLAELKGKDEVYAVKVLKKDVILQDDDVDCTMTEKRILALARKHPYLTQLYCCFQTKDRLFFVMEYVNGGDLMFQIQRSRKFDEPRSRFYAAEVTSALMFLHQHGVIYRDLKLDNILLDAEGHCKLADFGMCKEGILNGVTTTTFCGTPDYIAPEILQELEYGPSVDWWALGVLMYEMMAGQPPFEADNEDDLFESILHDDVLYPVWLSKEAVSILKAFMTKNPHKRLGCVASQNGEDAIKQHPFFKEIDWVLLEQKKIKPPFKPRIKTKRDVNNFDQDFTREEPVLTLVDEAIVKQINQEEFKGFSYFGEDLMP
Procedure: as §1

Drak2 = target: T6, Drak2 (Homo sapiens, UniProt O94768); assay: Drak2 kinase assay (ADP-GLO); conditions: read-out: Drak2 inhibition% at 0.8 μg/mL (~2 μM)
T6 sequence (O94768 1-372): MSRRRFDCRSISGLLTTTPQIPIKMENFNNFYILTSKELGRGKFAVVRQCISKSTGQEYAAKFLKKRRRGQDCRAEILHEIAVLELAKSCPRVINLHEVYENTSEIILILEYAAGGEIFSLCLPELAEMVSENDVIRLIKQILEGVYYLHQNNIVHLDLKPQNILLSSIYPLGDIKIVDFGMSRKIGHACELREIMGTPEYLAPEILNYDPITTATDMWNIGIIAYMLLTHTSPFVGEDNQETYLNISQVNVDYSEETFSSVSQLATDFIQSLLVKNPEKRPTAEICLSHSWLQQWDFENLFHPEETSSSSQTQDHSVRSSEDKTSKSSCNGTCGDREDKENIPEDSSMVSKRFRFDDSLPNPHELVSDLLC
Procedure: as §1

O=C1NC(=O)C(c2cn(CCCO)c3ccccc23)=C1c1noc2ccccc12 [7q, 3-(Benzo[d]isoxazol-3-yl)-4-(1-(3-hydroxypropyl)-1H-indol-3-yl)-1H-pyrrole-2,5-dione]
IC50 (GSK-3β): 38.9 ± 2.6 nM

O=C1NC(=O)C(c2cn(CCCN3CCCC3)c3ccccc23)=C1c1noc2ccccc12 [7n, 3-(Benzo[d]isoxazol-3-yl)-4-(1-(3-(pyrrolidin-1-yl)propyl)-1H-indol-3-yl)-1H-pyrrole-2,5-dione]
IC50 (GSK-3β): 659 ± 15.7 nM

O=C1NC(=O)C(c2cn(CCCN3CCOCC3)c3cc(Cl)ccc23)=C1c1noc2ccccc12 [7e, 3-(Benzo[d]isoxazol-3-yl)-4-(6-chloro-1-(3-morpholinopropyl)-1H-indol-3-yl)-1H-pyrrole-2,5-dione]
IC50 (GSK-3β): 510 ± 20.1 nM

CCCCn1cc(C2=C(c3noc4ccccc34)C(=O)NC2=O)c2ccccc21 [7p, 3-(Benzo[d]isoxazol-3-yl)-4-(1-butyl-1H-indol-3-yl)-1H-pyrrole-2,5-dione]
IC50 (GSK-3β): 58.7 ± 2.8 nM

O=C1NC(=O)C(c2cn(CCCn3cncn3)c3ccccc23)=C1c1noc2ccccc12 [7l, 3-(1-(3-(1H-1,2,4-Triazol-1-yl)propyl)-1H-indol-3-yl)-4-(benzo[d]isoxazol-3-yl)-1H-pyrrole-2,5-dione]
IC50 (GSK-3β): 20.9 ± 5.1 nM

O=C1NC(=O)C(c2cn(CCCn3ccnc3)c3ccccc23)=C1c1noc2ccccc12 [7j, 3-(1-(3-(1H-Imidazol-1-yl)propyl)-1H-indol-3-yl)-4-(benzo[d]isoxazol-3-yl)-1H-pyrrole-2,5-dione]
inhibition at 2 µM (JAK2): 4.9% | inhibition at 2 µM (BRAF): 0.8% | inhibition at 2 µM (IKK2): 3.5% | inhibition at 2 µM (PKC-epsilon): 10.9% | inhibition at 2 µM (Drak2): 4.47% | IC50 (GSK-3β): 0.73 ± 0.02 nM | GSK-3β inhibitory potency, fold more potent than compound 7a (GSK-3β; ratio of IC50 values, versus 7a): about 460 fold | Selectivity for GSK-3β over other tested kinases (GSK-3β): high selectivity

O=C1NC(=O)C(c2cn(CCCN3CCOCC3)c3cc(Br)ccc23)=C1c1noc2ccccc12 [7d, 3-(Benzo[d]isoxazol-3-yl)-4-(6-bromo-1-(3-morpholinopropyl)-1H-indol-3-yl)-1H-pyrrole-2,5-dione]
IC50 (GSK-3β): 210 ± 8.9 nM

O=C1NC(=O)C(c2cn(CCN3CCOCC3)c3ccccc23)=C1c1noc2ccccc12 [7g, 3-(Benzo[d]isoxazol-3-yl)-4-(1-(2-morpholinoethyl)-1H-indol-3-yl)-1H-pyrrole-2,5-dione]
IC50 (GSK-3β): 615.6 ± 6.1 nM

O=C1NC(=O)C(c2cn(CCCN3CCOCC3)c3ccccc23)=C1c1noc2ccccc12 [7h, 3-(Benzo[d]isoxazol-3-yl)-4-(1-(3-morpholinopropyl)-1H-indol-3-yl)-1H-pyrrole-2,5-dione]
IC50 (GSK-3β): 138 ± 6 nM

O=C1NC(=O)C(c2cn(CCCCn3ccnc3)c3ccccc23)=C1c1noc2ccccc12 [7k, 3-(1-(4-(1H-Imidazol-1-yl)butyl)-1H-indol-3-yl)-4-(benzo[d]isoxazol-3-yl)-1H-pyrrole-2,5-dione]
IC50 (GSK-3β): 89.8 ± 4.5 nM

COc1ccc2c(c1)c(C1=C(c3noc4ccccc34)C(=O)NC1=O)cn2CCCN1CCOCC1 [7b, 3-(Benzo[d]isoxazol-3-yl)-4-(5-methoxy-1-(3-morpholinopropyl)-1H-indol-3-yl)-1H-pyrrole-2,5-dione]
IC50 (GSK-3β): 357 ± 17.1 nM

O=C1NC(=O)C(c2cn(CCCN3CCCCC3)c3ccccc23)=C1c1noc2ccccc12 [7m, 3-(Benzo[d]isoxazol-3-yl)-4-(1-(3-(piperidin-1-yl)propyl)-1H-indol-3-yl)-1H-pyrrole-2,5-dione]
IC50 (GSK-3β): 512 ± 15.6 nM

O=C1NC(=O)C(c2noc3ccccc23)=C1c1c[nH]c2ccccc12 [7a, 3-(Benzo[d]isoxazol-3-yl)-4-(1H-indol-3-yl)-1H-pyrrole-2,5-dione]
IC50 (GSK-3β): 332 ± 25.7 nM

Cn1cc(C2=C(c3noc4ccccc34)C(=O)NC2=O)c2ccccc21 [7o, 3-(Benzo[d]isoxazol-3-yl)-4-(1-methyl-1H-indol-3-yl)-1H-pyrrole-2,5-dione]
inhibition at 2 µM (JAK2): 9.4% | inhibition at 2 µM (BRAF): 1.1% | inhibition at 2 µM (IKK2): 2.9% | inhibition at 2 µM (PKC-epsilon): 21.2% | inhibition at 2 µM (Drak2): 13.8% | IC50 (GSK-3β): 22.1 ± 1.5 nM | Selectivity for GSK-3β over other tested kinases (GSK-3β): high selectivity

O=C1NC(=O)C(c2cn(CCCCN3CCOCC3)c3ccccc23)=C1c1noc2ccccc12 [7i, 3-(Benzo[d]isoxazol-3-yl)-4-(1-(4-morpholinobutyl)-1H-indol-3-yl)-1H-pyrrole-2,5-dione]
IC50 (GSK-3β): 411 ± 8.2 nM
